Assay results: publication PMC10547880, “Synthesis and biological evaluation of novel 1,2,3-triazole hybrids of cabotegravir: identification of potent antitumor activity against lung cancer” (Frontiers in Pharmacology, 2023)

Tests used:
Assay type in all cases: cell-based, Human
[1] = system: H460 cells; test: CCK8 cell viability and IC50 measurement, H460
Protocol: Human lung cancer cell line H460 and H1299, human liver normal cell line LO2 were bought from ATCC. DMEM or RPMI 1640 was used as the cell culture medium with 10% FBS and 1% penicillin/streptomycin. Cells were maintained in an incubator with 37°C humidified atmosphere and 5% CO2.
Cell viability and IC50 values were determined using the CCK8 assay kit. Cells were seeded at a density of 5 × 10^3 cells per well in a 96-well plate. After overnight adhesion, 25 μM of compounds or vehicle control DMSO which all dissolved in the culture medium were added to cells and cultured for 48 h or 72 h. CCK8 reagent, dissolved in the medium, was then added to cells and incubated for 1 h. The absorbance at 450 nm was measured using a microplate spectrophotometer (Thermo). Cell viability was calculated, with the untreated group taken as 100%. For IC50 values determination, different concentrations (0, 0.4 μM, 2 μM, 10 μM, 20 μM, 50 μM) of compounds were added to cells for 72 h. Subsequent CCK8 measurement allowed the calculation of inhibition percentage based on cell viability. The IC50 values were computed by the prism statistical software. The CCK-8 assay was conducted three times and the repetitions in each time were at least three. All the values were expressed as Mean ± SD, p < 0.05 was considered statistically significant.
In order to assess the potential cytotoxicity of the synthesized compounds, we selected two types of human non-small-cell lung cancer cell line, H460 and H1299. Cell viability and cytotoxicity were evaluated using the CCK8 assay ([Xu et al., 2018]). The cells were treated with 25 μM of compounds 5a-5s and 6a-6i for 48h and 72 h. […] In contrast, no compounds managed to reduce H1299 cell viability to less than 50%, yet compounds 5i, 5m, 6h and 6i achieved cell viability rates below 70%. […] It is worth noting that minimal effects on the cell viability of the normal cell line LO2 were observed when exposed to these compounds. Further, we determined the half-maximal inhibitory concentration (IC50) of selected compounds against H460 cells, the results of which were summarized in Table 3.

[2] = system: H460 cells; test: Live/dead cell staining (Calcein-AM/PI), H460; conditions: H460, 5, 10, 20 μM, 24 h
Protocol: Cells with a density of 5 × 10^3 cells per well were seeded in a 96-well plate. After overnight incubation, cells were treated with different concentrations (0, 5 μM, 10 μM, 20 μM) of compounds for 24 h. The LIVE/DEAD Assay Kit was used to dye cells, and cells were observed and photographed under a fluorescent microscope. Live and Dead cell numbers were counted and the ratio of dead to living cells were calculated. Values were expressed as Mean ± SEM, p < 0.05 was considered statistically significant. Data were performed using Graph Prim 7.0. To assess the anti-proliferative effects of compound 5i, live/dead cell staining was performed using Calcein Acetoxymethyl Ester (Calcein-AM) and Propidium Iodide (PI) dyes ([Xie et al., 2023]). Calcein-AM highlights live cells through green fluorescence emission, while PI identifies dead cells with damaged membrane integrity, producing red fluorescence. H460 and H1299 cells were treated with different concentrations (0, 5, 10 and 20 μM) of compound 5i for 24 h. After 24 h treatment, cells were stained with Calcein-AM and PI, diluted in cultured medium, and incubated for an hour in dark. Then the fluorescence was detected and photographed using a fluorescent microscope. […] In addition, we also performed plate clone formation assay ([Xu et al., 2018]) to further investigate the anti-proliferation ability of compound 5i. […]

[3] = system: H460 cells; test: Plate clone formation assay, H460; conditions: H460, 2-32 μM, particularly 16 μM and 32 μM
Protocol: Cells with the density of 500 cells per well were seeded in a 6-well plate. Different concentrations (0, 2 μM, 4 μM, 8 μM, 16 μM and 32 μM) of compounds were added to cells and maintained for a 72- hour duration. And cells were cultured until the monoclonal appeared. Afterward, cells were fixed with 4% paraformaldehyde and stained by Giemsa dye. The plate clone numbers were photographed and counted using a microscope. Values were expressed as Mean ± SEM, p < 0.05 was considered statistically significant. Data were performed using Graph Prim 7.0.
To assess the anti-proliferative effects of compound 5i, live/dead cell staining was performed using Calcein Acetoxymethyl Ester (Calcein-AM) and Propidium Iodide (PI) dyes ([Xie et al., 2023]). Calcein-AM highlights live cells through green fluorescence emission, while PI identifies dead cells with damaged membrane integrity, producing red fluorescence. H460 and H1299 cells were treated with different concentrations (0, 5, 10 and 20 μM) of compound 5i for 24 h. After 24 h treatment, cells were stained with Calcein-AM and PI, diluted in cultured medium, and incubated for an hour in dark. Then the fluorescence was detected and photographed using a fluorescent microscope. […] In addition, we also performed plate clone formation assay ([Xu et al., 2018]) to further investigate the anti-proliferation ability of compound 5i. […]

IC50 ([1]; H460, 72 h, CCK8): 6.06 ± 1.8 µM
SMILES: COc1c2n(cc(C(=O)Nc3cccc(-c4cn(-c5ccccc5OC(F)(F)F)nn4)c3)c1=O)CC1OCC(C)N1C2=O (stereo not shown) [Compound 5i]
cell proliferation inhibition rate ([1]; H460, 72-h treatment): exceed 50%
live and dead cell numbers [2]: significantly decreased the number of live cells and increased the number of dead cells
number of cell clones [3]: decreased
